US10881639B2, “Use of composition of multivitamin in preparing drug for stimulating gastrointestinal system motility” (Zensun (Shanghai) Science & Technology, Co., Ltd., priority 2015, dated 2021)
Counter-ions that a name gives are not always drawn.

System: mice with 2.5 mg/kg loperamide-induced constipation
Test: Small intestinal propulsive rate of a charcoal solution in mice with 2.5 mg/kg loperamide-induced constipation, with positive controls (Example 2)
Type: in vivo, mouse
Settings: for Effect on the small intestinal propulsive rate (%) vs model group, in words: positive drugs at 1× dose, loperamide-induced constipation mouse model; for Propulsive distance of the charcoal solution / Small intestinal propulsive rate: positive drugs intragastric: itopride 30.75, naloxone 5.0, domperidone 6.16, mosapride citrate 3.075 mg/kg, loperamide 2.5 mg/kg s.c., 20 min after charcoal
From the text: 1.2 Experimental Animals Species: mouse Strains: C57BL/6 Gender and quantity: Female, 65 Animal week-age: 8-9 weeks Weight range: 19.0-25.0 g Animal sources: Shanghai Lingchang Biotechnology Co. LTD Animal certificate number: 2013001804393 2. Experimental Design and Methods 2.1 Test Grouping:
Experimental animals were randomly divided into 8 groups (8 animals per group) by the random number table method.
2.2 Reagent Preparation 1) 0.5% CMC—Na solution: 2.0 g of CMC—Na powder was weighed and 300 ml ultra-pure water was slowly added thereto; the mixture was subjected to magnetic stirring until it was completely dissolved to reach a constant volume of 400 ml, thereby preparing a clear solution of 0.5%, which was stored at 4° C. for later use. 2) 1% Tween-80 in saline: 40 ml saline was accurately measured using a measuring cylinder and added into a 50 ml centrifuge tube; 400 μl Tween-80 was measured using a pipette and added into the centrifuge tube; and the mixture was subjected to vortex oscillation to be homogeneous and was then placed at room temperature for later use. 3) 5% charcoal solution: 100 g of Arabic gum was accurately weighed and 800 ml water was added thereto; and the solution was boiled until it was transparent. 50 g of activated carbon powder was weighed and added into the above solution and the mixture was boiled for three times. After the solution was cool, water was added to reach a constant volume of 1000 ml. 4) Group for the composition comprising B vitamins (9 components) and C vitamins (5×): one tablet of the composition comprising B vitamins (9 components) and C vitamins was taken; after its grinding, 19.5 ml of 0.5% CMC—Na was added; and the mixture was subjected to oscillation to become homogeneous, thereby forming a stable suspension. It was used immediately after its preparation. 5) Group for the composition comprising B vitamins (9 components) and C vitamins (1×): 2 ml of the suspension of the composition comprising B vitamins (9 components) and C vitamins (5×) was taken and 8 ml of 0.5% CMC—Na was added; and the mixture was subjected to oscillation to become homogeneous, thereby forming a stable suspension. It was used immediately after its preparation. 6) Domperidone: 32.52 ml of 0.5% CMC—Na was added after grinding of one domperidone tablet; and the mixture was subjected to oscillation to become homogeneous, thereby forming a stable suspension. It was used immediately after its preparation. 7) Mosapride citrate: 32.52 ml of 0.5% CMC—Na was added after grinding of one mosapride citrate tablet; and the mixture was subjected to oscillation to become homogeneous, thereby forming a stable suspension. It was used immediately after its preparation. […] It was used immediately after its preparation. […] It was used immediately after its preparation. 10) Loperamide: 5.0 mg of loperamide was accurately weighed and 20 ml of a saline solution with 1.0% Tween 80 was added thereto; after being subjected to oscillation to become homogeneous, the mixture was subjected to ultrasound for at least 5 minutes. This reagent was used immediately after it was prepared. 2.3 Test Methods
After 30 minutes of administration, the control group was injected subcutaneously with the saline solution containing 1.0% Tween 80 while the other groups were injected subcutaneously with a loperamide solution in an injection volume of 10 ml/kg. After a subcutaneous injection for 30 minutes, an intragastric administration of the charcoal solution was performed at an administration volume of 10 ml/kg^[1,2,3].
2.4 Observation Index Small intestinal propulsive rate of the charcoal solution (%)=(the propulsive distance of the charcoal solution/total length of the small intestine)×100
Twenty minutes after an intragastric administration of the charcoal solution, the animal was sacrificed by cervical dislocation and its abdominal cavity was immediately opened to separate the mesentery.

O=c1[nH]c2ccccc2n1CCCN1CCC(n2c(=O)[nH]c3cc(Cl)ccc32)CC1 [Domperidone]
Effect on the small intestinal propulsive rate (%) vs model group, in words: do not have the improvement effect | Propulsive distance of the charcoal solution: 4.0 ± 1.1 cm | Small intestinal propulsive rate: 20.1 ± 5.7% | Small intestinal propulsive rate (listed as domperidone): 19.5±3.8%

COc1ccc(C(=O)NCc2ccc(OCCN(C)C)cc2)cc1OC [Itopride hydrochloride]
Effect on the small intestinal propulsive rate (%) vs model group, in words: do not have the improvement effect | Propulsive distance of the charcoal solution: 5.0 ± 1.2 cm | Small intestinal propulsive rate (hydrochloride): 26.4 ± 7.0% | Small intestinal propulsive rate (listed as itopride hydrochloride, hydrochloride): 26.4±7.0%

CCOc1cc(N)c(Cl)cc1C(=O)NCC1CN(Cc2ccc(F)cc2)CCO1 (stereo not drawn) [Mosapride Citrate, Mosapride citrate]
Effect on the small intestinal propulsive rate (%) vs model group, in words: do not have the improvement effect | Propulsive distance of the charcoal solution: 11.7 ± 2.1 cm | Small intestinal propulsive rate: 60.7 ± 12.1 % | Small intestinal propulsive rate (listed as mosapride citrate): 20.1±5.7%

C=CCN1CC[C@]23c4c5ccc(O)c4O[C@H]2C(=O)CC[C@@]3(O)[C@H]1C5 [Naloxone]
Effect on the small intestinal propulsive rate (%) vs model group, in words: also has the improvement effect | Propulsive distance of the charcoal solution: 3.9 ± 0.8 cm | Small intestinal propulsive rate: 19.5 ± 3.8%
